The results in this text go back to patent US20130252983A1, “ACTIVATING PHOSPHORYLATION SITE ON GLUTAMINASE C” (CORNELL UNIVERSITY, priority 2010, published 2013).

In one assay the test system is SKBR3 cells. In words: Growth to high density and in low serum, SKBR3. The assay is classed as cell-based, human. The settings on record: 10 μM. As to the method:
(§1) FIGS. 2A-G illustrate effects of 968 on the transforming activity of constitutively active Rho GTPases and human breast cancer cells. […] Cells were scored after 14 days and plotted as the percentage of the total number of colonies greater than 50 μm in diameter. Data represent the average of 3 experiments (±s.d.). […] Data represent the average of 3 experiments (±s.d.). […] Data represent the average of 3 experiments (±s.d.). […] After 24 hours at 37° C., the migratory cells were fixed, stained with GIEMSA, and counted. Data represent the average of 3 experiments (±s.d.). […] Data represent the average of 3 experiments (±s.d.). […] Data represent the average of 3 experiments (±s.d.). […] Data represent the average of 3 experiments (±s.d.).
100%=620 moles of glutamine hydrolyzed per minute per mole of enzyme. Data represent the average of 3 experiments (±s.d.). […] Following precipitation of the beads and re-suspension, the samples were analyzed by Western blotting with anti-V5 antibody. […] Data represent the average of 3 experiments (±s.d.). […] Data represent the average of 3 experiments (±s.d.). […] Data represent the average of 3 experiments (±s.d.). FIG. 3E NIH 3T3 cells transiently expressing Dbl were assayed for focus formation in the presence of 10 μM 968 alone or together with 7 mM dimethyl α-ketoglutarate. […] 100%=680 nM glutamine hydrolyzed per minute per 10^5 cells. […]

A further assay deals with MDA-MB231 cells. In words: Growth to high density and in low serum, MDA-MB231. The assay is classed as cell-based, human. To be noted: 10 μM. As for the experimental part: as §1
In assay [1] the target is T1, GA activity of NIH 3T3 cells stably expressing Dbl or Cdc42(F28L) (Mus musculus, UniProt D3Z7P3).
T1 construct: endogenous in cells; host or cells: NIH 3T3 cells stably expressing Dbl or Cdc42(F28L); mitochondrial fraction
T1 sequence (D3Z7P3 55-603 isoform D3Z7P3-2): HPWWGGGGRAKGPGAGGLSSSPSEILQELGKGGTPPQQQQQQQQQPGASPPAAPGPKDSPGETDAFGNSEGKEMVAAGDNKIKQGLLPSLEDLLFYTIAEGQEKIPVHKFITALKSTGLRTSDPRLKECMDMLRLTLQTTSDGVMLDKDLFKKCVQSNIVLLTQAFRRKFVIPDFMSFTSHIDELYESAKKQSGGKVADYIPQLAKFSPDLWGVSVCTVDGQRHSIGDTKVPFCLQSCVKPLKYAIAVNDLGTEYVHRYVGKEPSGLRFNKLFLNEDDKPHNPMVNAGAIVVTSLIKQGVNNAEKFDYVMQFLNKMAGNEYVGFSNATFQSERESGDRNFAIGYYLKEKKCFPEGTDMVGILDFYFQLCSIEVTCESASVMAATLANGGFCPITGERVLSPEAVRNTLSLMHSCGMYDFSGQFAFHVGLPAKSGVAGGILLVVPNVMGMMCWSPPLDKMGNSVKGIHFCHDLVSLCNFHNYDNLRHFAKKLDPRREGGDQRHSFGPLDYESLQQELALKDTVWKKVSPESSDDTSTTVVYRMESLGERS
In words: GA activity in mitochondrial fractions of treated transformed NIH 3T3 cells. The assay is classed as cell-based. To be noted: 10 μM, 48 hours. As to the method: 100%=620 moles of glutamine hydrolyzed per minute per mole of enzyme. Data represent the average of 3 experiments (±s.d.). […] Following precipitation of the beads and re-suspension, the samples were analyzed by Western blotting with anti-V5 antibody. […] Data represent the average of 3 experiments (±s.d.). […] Data represent the average of 3 experiments (±s.d.). […] Data represent the average of 3 experiments (±s.d.). FIG. 3E NIH 3T3 cells transiently expressing Dbl were assayed for focus formation in the presence of 10 μM 968 alone or together with 7 mM dimethyl α-ketoglutarate. […] 100%=680 nM glutamine hydrolyzed per minute per 10^5 cells. Data are the average of 3 experiments (±s.d.). […] 100%=750 nM glutamine hydrolyzed per minute per 10^5 cells. Data represent the average of 3 experiments (±s.d.).
FIGS. 4A-E illustrate the role of glutaminase C activity in cellular transformation. […] Data represent the average of 3 experiments (±s.d.). […] Data represent the average of 3 experiments (±s.d.). […] 100% represents the activity measured in untreated Dbl-transformed cells. The data represent the average of 2 experiments. […] 100% represents the activity measured in untreated SKBR3 cells. The data represent the average of 2 experiments. […] Data represent the average of 3 experiments (±s.d.).
FIGS. 11A-E illustrate the effects of different treatments on GA activity. […] The addition of Pi stimulated the GA activity in control 3T3 cells, Dbl-expressing cells, and Cdc42(F28L)-expressing cells by ˜6-fold, 2-fold, and 3-fold, respectively. 100% represents the Pi-stimulated activity measured for Dbl-transformed cells that were not treated with 968. Data is the average of 3 experiments (±s.d.). […] The addition of Pi stimulated the GA activity of HMECs, MDA-MB231 cells, and SKBR3 cells by ˜5-fold, 2-fold, and 1.4-fold, respectively. 100% represents the Pi-stimulated activity for SKBR3 cells that were not treated with 968. Data are the average of 3 experiments (±s.d.). […] Mitochondrial fractions were prepared from equal numbers of cells and assayed for GA activity in the presence or absence of 133 mM Pi. The data are plotted as the percentage of GA activity measured for untreated SKBR3 cells and represent the average of 2 experiments. […] 100% represents the Pi-stimulated activity measured for untreated Dbl-transformed cells. The data represent the average of 2 experiments. […] 100% represents the Pi-stimulated activity for untreated SKBR3 cells. The data represent the average of 2 experiments.
Dbl expressing NIH 3T3 cells were treated for 48 hours in the presence or absence of 968 (10 μM), Bay 11-7082 (2 μM) or Rapamycin (100 nM). Mitochondria were then isolated from the treated cells and assayed for glutaminase activity in the absence or presence of phosphate.
Mitochondrial preparations were obtained using the mitochondria isolation kit from QIAGEN (Cat #37612). A suspension containing 2×10^7 cells was transferred into a 50 ml conical tube and centrifuged at 500×g for 10 minutes at 4° C. The pellets were resuspended in 2 ml of ice-cold lysis buffer (supplied by QIAGEN) and incubated for 10 minutes at 4° C. using an end-over-end shaker. The lysates were centrifuged at 1000×g for 10 minutes at 4° C., and the pellets were resuspended in a buffer supplied by the manufacturer and disrupted completely by using a blunt-ended, 23-gauge needle and a syringe, followed by centrifugation at 6000×g for 20 minutes at 4° C. […]

In the case of `CN(C)c1ccc(C2Nc3ccc4ccccc4c3C3=C2C(=O)CC(C)(C)C3)cc1Br` (stereo not drawn) [Compound 968, 5-[3-bromo-4-(dimethylamino)phenyl]-2,2-dimethyl-2,3,5,6-tetrahydrobenzo[a]], the “growth in low serum” value in the assay on SKBR3 cells (1% fetal bovine serum) and with MDA-MB231 cells (1% fetal bovine serum) was “inhibits their growth” in each case. Also, the “growth to high density” value was “inhibits their growth” with SKBR3 cells (10% fetal bovine serum, 6 days) and “inhibits their growth” with MDA-MB231 cells (10% fetal bovine serum, 6 days). Besides, in assay [1], the “GA activity of transformed cells” value is recorded as “inhibits their GA activity”. Also, the “sensitivity of basal versus phosphate-stimulated GA activity” value in assay [1] (with or without 133 mM Pi) is listed as “basal activity being more sensitive than the phosphate-stimulated activity”.
